Measurements taken from US11000033B2, “Ketone or oxime compound, and herbicide” (NISSAN CHEMICAL CORPORATION, priority 2014, dated 2021).

Legend:
Format in all cases: in vivo
Amaranthus retroflexus [1] = test: Test Example 4: herbicidal effect by soil treatment (symbol N); conditions: application herbicide amount 320 g/ha
Outline: (§1)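 Seeds were sown in sterilized diluvial soil, covered with about 1.5 cm of soil, and the soil surface was sprayed with a water-diluted emulsion of the compound at a predetermined rate. Plants grew in a greenhouse at 25° C. to 30° C.; effects were scored visually 3 weeks after application.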

[2] = test system: Echinochloa crus-galli var. crus-galli; test: Test Example 5: herbicidal effect by foliage application, plastic box (symbol H); conditions: 320 g/ha, 3 weeks after application
Outline: (§2)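 Sowing in sterilized diluvial soil, 14 days' greenhouse growth at 25° C. to 30° C., then uniform small-sprayer foliar application of aqueous emulsion dilution; plants scored three weeks afterwards.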

Galium spurium [3] = test: Test Example 4: herbicidal effect by soil treatment (symbol Q); conditions: application herbicide amount 320 g/ha
Outline: as §1

Avena fatua = test: Test Example 4: herbicidal effect by soil treatment (symbol I); conditions: application herbicide amount 320 g/ha
Outline: as §1

Setaria viridis [4] = test: Test Example 4: herbicidal effect by soil treatment (symbol G); conditions: application herbicide amount 320 g/ha
Outline: as §1

rice = test: Test Example 4: effect on crop by soil treatment (symbol b); conditions: application herbicide amount 320 g/ha
Outline: (§3)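 Steps: fill box with sterilized diluvial soil; sow seed spot-like; cover with ~1.5 cm soil; grow in greenhouse (25° C. to 30° C.).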

soybean [5] = test: Test Example 4: effect on crop by soil treatment (symbol d); conditions: application herbicide amount 320 g/ha
Outline: as §3

Alopecurus myosuroides [6] = test: Test Example 4: herbicidal effect by soil treatment (symbol J); conditions: application herbicide amount 320 g/ha
Outline: as §1

Abutilon theophrasti = test: Test Example 4: herbicidal effect by soil treatment (symbol M); conditions: application herbicide amount 320 g/ha
Outline: as §1

Galium spurium [7] = test: Test Example 5: herbicidal effect by foliage application, plastic box (symbol Q); conditions: 320 g/ha, 3 weeks after application
Outline: as §2

Digitaria ciliaris = test: Test Example 5: herbicidal effect by foliage application, plastic box (symbol F); conditions: 320 g/ha, 3 weeks after application
Outline: as §2

Stellaria media = test: Test Example 4: herbicidal effect by soil treatment (symbol P); conditions: application herbicide amount 320 g/ha
Outline: as §1

Amaranthus retroflexus [8] = test: Test Example 5: herbicidal effect by foliage application, plastic box (symbol N); conditions: 320 g/ha, 3 weeks after application
Outline: as §2

Scirpus juncoides = test: Test Example 1: herbicidal activity, application before weed generation in submerged conditions (symbol B); conditions: application herbicide amount 320 g/ha
Outline: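 Weeds are sown into submerged alluvial soil alongside transplanted 2.5-leaf rice, and the compound, as an emulsion diluted to a set rate, is applied onto the water before emergence. Rating on the 0–5 herbicidal-ratio scale follows 3 weeks of greenhouse growth at 25–30 °C.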

rice plant = test: Test Example 5: effect on crop by foliage application, plastic box (symbol b); conditions: 320 g/ha, 3 weeks after application
Outline: (§4)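 A greenhouse held between 25° C. and 30° C. was used to grow plants sown spot-wise, beneath ~1.5 cm of soil, in boxes of sterilized diluvial soil.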

wheat [9] = test: Test Example 4: effect on crop by soil treatment (symbol e); conditions: application herbicide amount 320 g/ha
Outline: as §3

corn = test: Test Example 4: effect on crop by soil treatment (symbol c); conditions: application herbicide amount 320 g/ha
Outline: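 The test used sterilized diluvial soil. Seed was set down in spots and overlaid with about 1.5 cm of soil before growth in a greenhouse kept at 25° C. to 30° C.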

Lolium multiflorum Lam. = test: Test Example 4: herbicidal effect by soil treatment (symbol K); conditions: application herbicide amount 320 g/ha
Outline: as §1

soybean [10] = test: Test Example 5: effect on crop by foliage application, plastic box (symbol d); conditions: 320 g/ha, 3 weeks after application
Outline: as §4

wheat [11] = test: Test Example 5: effect on crop by foliage application, plastic box (symbol e); conditions: 320 g/ha, 3 weeks after application
Outline: as §4

Alopecurus myosuroides [12] = test: Test Example 5: herbicidal effect by foliage application, plastic box (symbol J); conditions: 320 g/ha, 3 weeks after application
Outline: as §2

Setaria viridis [13] = test: Test Example 5: herbicidal effect by foliage application, plastic box (symbol G); conditions: 320 g/ha, 3 weeks after application
Outline: as §2

SMILES | Herbicidal effect grade, N: Amaranthus retroflexus (Amaranthus retroflexus [1]) | H: Echinochloa crus-galli var. crus-galli, herbicidal effect (criteria of Test Example 1) [2] | Herbicidal effect grade, Q: Galium spurium (Galium spurium [3]) | Herbicidal effect grade, I: Avena fatua (Avena fatua) | Herbicidal effect grade, G: Setaria viridis (Setaria viridis [4]) | Effect on crop grade, b: directly sowed rice plant (rice) | Effect on crop grade, d: soybean (soybean [5]) | Herbicidal effect grade, J: Alopecurus myosuroides (Alopecurus myosuroides [6]) | Herbicidal effect grade, M: Abutilon theophrasti (Abutilon theophrasti) | Q: Galium spurium, herbicidal effect (criteria of Test Example 1) (Galium spurium [7]) | F: Digitaria ciliaris, herbicidal effect (criteria of Test Example 1) (Digitaria ciliaris) | Herbicidal effect grade, P: Stellaria media (Stellaria media) | N: Amaranthus retroflexus, herbicidal effect (criteria of Test Example 1) (Amaranthus retroflexus [8]) | Herbicidal effect grade, B: Scirpus juncoides (Scirpus juncoides) | b: directly sowed rice plant, effect on crop (criteria of Test Example 1) (rice plant) | Effect on crop grade, e: wheat (wheat [9]) | Effect on crop grade, c: corn (corn) | Herbicidal effect grade, K: Lolium multiflorum Lam. (Lolium multiflorum Lam.) | d: soybean, effect on crop (criteria of Test Example 1) (soybean [10]) | e: wheat, effect on crop (criteria of Test Example 1) (wheat [11]) | further results
CC(=O)CC1CC(O)=C(c2c(C)cc(OCc3ccccc3)cc2C)C1=O (stereo not drawn) [7-018] | 0 (Herbicidal ratio of 5% or lower (almost no effect)) | 4 (Herbicidal ratio of 70% or higher and lower than 90%) | 0 (Herbicidal ratio of 5% or lower (almost no effect)) | 0 (Herbicidal ratio of 5% or lower (almost no effect)) | 1 (Herbicidal ratio of 5% or higher and lower than 20%) | 0 (Herbicidal ratio of 5% or lower (almost no effect)) | 0 (Herbicidal ratio of 5% or lower (almost no effect)) | 0 (Herbicidal ratio of 5% or lower (almost no effect)) | 0 (Herbicidal ratio of 5% or lower (almost no effect)) | 0 (Herbicidal ratio of 5% or lower (almost no effect)) | 5 (Herbicidal ratio of 90% or more (almost completely withered)) | 0 (Herbicidal ratio of 5% or lower (almost no effect)) | 0 (Herbicidal ratio of 5% or lower (almost no effect)) | 0 (Herbicidal ratio of 5% or lower (almost no effect)) | 2 (Herbicidal ratio of 20% or higher and lower than 40%) | 0 (Herbicidal ratio of 5% or lower (almost no effect)) | 0 (Herbicidal ratio of 5% or lower (almost no effect)) | 0 (Herbicidal ratio of 5% or lower (almost no effect)) | 0 (Herbicidal ratio of 5% or lower (almost no effect)) | 0 (Herbicidal ratio of 5% or lower (almost no effect)) | J: Alopecurus myosuroides, herbicidal effect (criteria of Test Example 1) (Alopecurus myosuroides [12]): 0 (Herbicidal ratio of 5% or lower (almost no effect)); G: Setaria viridis, herbicidal effect (criteria of Test Example 1) (Setaria viridis [13]): 4 (Herbicidal ratio of 70% or higher and lower than 90%)
COc1cc(C)c(C2=C(O)CC(CC(C)=O)C2=O)c(C)c1 (stereo not drawn) [7-020] | 0 (Herbicidal ratio of 5% or lower (almost no effect)) | 4 (Herbicidal ratio of 70% or higher and lower than 90%) | 0 (Herbicidal ratio of 5% or lower (almost no effect)) | 0 (Herbicidal ratio of 5% or lower (almost no effect)) | 2 (Herbicidal ratio of 20% or higher and lower than 40%) | 5 (Herbicidal ratio of 90% or more (almost completely withered)) | 0 (Herbicidal ratio of 5% or lower (almost no effect)) | 3 (Herbicidal ratio of 40% or higher and lower than 70%) | 0 (Herbicidal ratio of 5% or lower (almost no effect)) | 0 (Herbicidal ratio of 5% or lower (almost no effect)) | 5 (Herbicidal ratio of 90% or more (almost completely withered)) | 0 (Herbicidal ratio of 5% or lower (almost no effect)) | 0 (Herbicidal ratio of 5% or lower (almost no effect)) | 0 (Herbicidal ratio of 5% or lower (almost no effect)) | 3 (Herbicidal ratio of 40% or higher and lower than 70%) | 0 (Herbicidal ratio of 5% or lower (almost no effect)) | 0 (Herbicidal ratio of 5% or lower (almost no effect)) | 3 (Herbicidal ratio of 40% or higher and lower than 70%) | 0 (Herbicidal ratio of 5% or lower (almost no effect)) | 0 (Herbicidal ratio of 5% or lower (almost no effect)) | J: Alopecurus myosuroides, herbicidal effect (criteria of Test Example 1) (Alopecurus myosuroides [12]): 4 (Herbicidal ratio of 70% or higher and lower than 90%); G: Setaria viridis, herbicidal effect (criteria of Test Example 1) (Setaria viridis [13]): 3 (Herbicidal ratio of 40% or higher and lower than 70%)
CC(=O)CC1CC(O)=C(c2c(C)cc(-n3cccn3)cc2C)C1=O (stereo not drawn) [7-024] | 0 (Herbicidal ratio of 5% or lower (almost no effect)) | 5 (Herbicidal ratio of 90% or more (almost completely withered)) | 0 (Herbicidal ratio of 5% or lower (almost no effect)) | 0 (Herbicidal ratio of 5% or lower (almost no effect)) | 0 (Herbicidal ratio of 5% or lower (almost no effect)) | 5 (Herbicidal ratio of 90% or more (almost completely withered)) | 0 (Herbicidal ratio of 5% or lower (almost no effect)) | 0 (Herbicidal ratio of 5% or lower (almost no effect)) | 0 (Herbicidal ratio of 5% or lower (almost no effect)) | 0 (Herbicidal ratio of 5% or lower (almost no effect)) | 0 (Herbicidal ratio of 5% or lower (almost no effect)) | 0 (Herbicidal ratio of 5% or lower (almost no effect)) | 0 (Herbicidal ratio of 5% or lower (almost no effect)) | 1 (Herbicidal ratio of 5% or higher and lower than 20%) | 3 (Herbicidal ratio of 40% or higher and lower than 70%) | 0 (Herbicidal ratio of 5% or lower (almost no effect)) | 0 (Herbicidal ratio of 5% or lower (almost no effect)) | 0 (Herbicidal ratio of 5% or lower (almost no effect)) | 0 (Herbicidal ratio of 5% or lower (almost no effect)) | 0 (Herbicidal ratio of 5% or lower (almost no effect)) | J: Alopecurus myosuroides, herbicidal effect (criteria of Test Example 1) (Alopecurus myosuroides [12]): 2 (Herbicidal ratio of 20% or higher and lower than 40%); G: Setaria viridis, herbicidal effect (criteria of Test Example 1) (Setaria viridis [13]): 0 (Herbicidal ratio of 5% or lower (almost no effect))
